Calls of active or inactive are those of the source. No cut-off for these calls is given here.
How the values were obtained:
[1] = target: T1, DNA topoisomerase 1 (Homo sapiens) (UniProt P11387); test: Inhibition of topoisomerase 1 in human A549 cells assessed as increase in phosphorylated KAP1 expression after 24 hrs by Western blot analysis; format: cell-based
T1 sequence (whole entry): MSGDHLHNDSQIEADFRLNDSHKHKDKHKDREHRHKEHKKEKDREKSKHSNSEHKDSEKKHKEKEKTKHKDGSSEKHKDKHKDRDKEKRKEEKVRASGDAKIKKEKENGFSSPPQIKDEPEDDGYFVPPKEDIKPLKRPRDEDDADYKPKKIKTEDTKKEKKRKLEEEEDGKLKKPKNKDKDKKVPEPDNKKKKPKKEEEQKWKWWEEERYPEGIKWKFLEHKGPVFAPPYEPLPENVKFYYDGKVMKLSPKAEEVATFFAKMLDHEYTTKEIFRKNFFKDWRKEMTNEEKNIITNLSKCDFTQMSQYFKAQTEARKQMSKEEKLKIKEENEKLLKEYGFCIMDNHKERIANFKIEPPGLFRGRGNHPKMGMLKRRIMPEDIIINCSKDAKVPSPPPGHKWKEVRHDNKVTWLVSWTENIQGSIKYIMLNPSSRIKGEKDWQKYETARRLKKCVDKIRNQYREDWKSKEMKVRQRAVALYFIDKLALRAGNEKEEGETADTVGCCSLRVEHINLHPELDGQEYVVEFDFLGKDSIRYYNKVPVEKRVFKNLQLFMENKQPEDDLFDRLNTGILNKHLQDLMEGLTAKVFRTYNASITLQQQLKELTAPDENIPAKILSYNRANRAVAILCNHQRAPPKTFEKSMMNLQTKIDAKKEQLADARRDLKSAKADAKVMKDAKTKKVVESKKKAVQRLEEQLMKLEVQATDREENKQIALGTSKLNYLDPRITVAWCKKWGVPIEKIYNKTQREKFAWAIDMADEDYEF

[2] = Prodrug release in mouse plasma xenografted with human HCT116 cells assessed as increase in 7-ethyl-10-hydroxycamptothecin level at 50 mg/kg, iv administered as single dose and measured after 30 mins to 72 hrs by LC-MS/MS analysis; format: ADME, organism-based; conditions: in vivo
[3] = system: Mus musculus; test: Down regulation of topoisomerase 1 expression in mouse xenografted with human Capan1 cells at 50 mg/kg, iv for every 2 days measured at 2 hrs post last dose by Western blot analysis; format: functional, organism-based
[4] = Drug uptake in mouse plasma xenografted with human Capan1 cells at 50 mg/kg, iv after 30 mins by LC-MS/MS analysis; format: ADME, organism-based; conditions: in vivo, 0.5 h
[5] = Toxicity in kidney of mouse xenografted with human Capan1 cells assessed as pathological changes at 50 mg/kg, iv for every 2 days measured at 2 hrs post last dose by H and E staining based analysis; format: organism-based; conditions: in vivo
[6] = Toxicity in spleen of mouse xenografted with human Capan1 cells assessed as pathological changes at 50 mg/kg, iv for every 2 days measured at 2 hrs post last dose by H and E staining based analysis; format: organism-based; conditions: in vivo
[7] = system: CAPAN-1; test: Antitumor activity against human Capan1 cells xenografted in mouse assessed as tumor cells with nuclear lysis at 36 mg/kg, iv for every 2 days measured at 2 hrs post last dose by H and E staining based analysis; format: functional, organism-based
[8] = system: CAPAN-1; test: Antitumor activity against human Capan1 cells xenografted in mouse assessed as increase in apoptosis of tumor cells by measuring increase in green fluorescence at 50 mg/kg, iv for every 2 days measured at 2 hrs post last dose by TUNEL assay; format: functional, organism-based
[9] = system: CAPAN-1; test: Antitumor activity against human Capan1 cells xenografted in mouse assessed as reduction in Ki67 expression at 50 mg/kg, iv for every 2 days measured at 2 hrs post last dose by Ki67 staining based immunohistochemical analysis; format: functional, organism-based
[10] = Prodrug release in human A549 cells assessed as increase in 7-ethyl-10-hydroxycamptothecin level at 5 uM after 12 hrs by LC-MS/MS analysis; format: ADME, cell-based; conditions: a549, 12 h
[11] = target: T2, Heat shock protein HSP90 (Homo sapiens, UniProt P07900+P08238); test: Inhibition of HSP90 in human HCT116 cells assessed as upregulation of HSP70 expression at 0.008 to 1 uM after 24 hrs by Western blot analysis; format: cell-based
[12] = target: T2, Heat shock protein HSP90; test: Inhibition of HSP90 in human A549 cells assessed as downregulation of Akt expression at 0.008 to 1 uM after 24 hrs by Western blot analysis; format: cell-based

inhibition [1]: Dose-dependent effect | Drug metabolism [2]: Metabolite_Detected | Drug uptake [4]: Active | Drug metabolism [10]: Metabolite_Detected | inhibition [11]: inactive | inhibition [12]: inactive
Structure (SMILES): CCc1c2c(nc3ccc(O)cc13)-c1cc3c(c(=O)n1C2)COC(=O)[C@@]3(CC)OC(=O)CNC(=O)c1noc(-c2cc(C(C)C)c(O)cc2O)c1-c1ccc(CN2CCOCC2)cc1
inhibition [3]: Active | Activity [5]: Non-Toxic | Activity [6]: Toxic | Activity [7]: Active | Activity [8]: Active | Activity [9]: Active

From ChEMBL document CHEMBL4354883, “Design, Synthesis, and Biological Evaluation of HSP90 Inhibitor-SN38 Conjugates for Targeted Drug Accumulation” (J Med Chem, 2020)
